Experimental findings from patent US20260028336A1 (Arcus Biosciences, Inc., priority 2022, published 2026) are described below.

Assay [1] concerns Jurkat cells. Kind of assay: IL-2 secretion assay in CD3/CD28-activated Jurkat cells (AlphaLISA). The format is cell-based. Particulars: Homo sapiens, CD3/CD28 T Cell Activator, 24 h, IL-2 AlphaLISA. The protocol: Certain compounds were also evaluated in an IL-2 secretion assay. On the day of the assay, a 16 point, 1:2 master serial dilution of each compound was prepared in Opti-MEM to span a final concentration range of 10 μM to 300 pM. Assays were set up in CORNING® tissue culture-treated 384-well microplates containing 60 nL of each dilution. […] 50,000 cells/well and added to the compound plates. After a short spin (1200 rpm for 1 min), the plates were incubated at 37° C. for 1 hour. The cells were activated by adding 15 μL of IMMUNOCULT™ Human CD3/CD28 T Cell Activator ([…] Technologies) diluted in Opti-MEM. […] The AiphaLISA signal was measured using an EnVision plate reader (PerkinElmer). EC50 values were determined by fitting the data to a standard 4-parameter logistic equation.
On the technique in general: Alpha assays give light when donor and acceptor beads are brought close together.

The target in assay [2] is T1, Cbl-b (Homo sapiens, UniProt Q13191).
T1 construct: biotin (biotinylated)
Kind of assay: Cbl-b probe displacement HTRF binding assay. Particulars: 0.4 nM biotinylated Cbl-b, 150 nM BODIPY probe. In outline: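 Biotinylated Cbl-b was preincubated with compound for 60 min at room temperature in HEPES/NaCl/Triton/TCEP/BSA buffer. BODIPY probe was added for 15 min, followed by streptavidin-terbium, and the HTRF signal was read. Displacement was normalised to DMSO and no-protein controls, and affinity was obtained from a four-parameter dose-response fit.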
In general terms: Time-resolved FRET reads energy transfer from a long-lived donor to a nearby acceptor.

T1 sequence (Q13191 whole entry, species assumed): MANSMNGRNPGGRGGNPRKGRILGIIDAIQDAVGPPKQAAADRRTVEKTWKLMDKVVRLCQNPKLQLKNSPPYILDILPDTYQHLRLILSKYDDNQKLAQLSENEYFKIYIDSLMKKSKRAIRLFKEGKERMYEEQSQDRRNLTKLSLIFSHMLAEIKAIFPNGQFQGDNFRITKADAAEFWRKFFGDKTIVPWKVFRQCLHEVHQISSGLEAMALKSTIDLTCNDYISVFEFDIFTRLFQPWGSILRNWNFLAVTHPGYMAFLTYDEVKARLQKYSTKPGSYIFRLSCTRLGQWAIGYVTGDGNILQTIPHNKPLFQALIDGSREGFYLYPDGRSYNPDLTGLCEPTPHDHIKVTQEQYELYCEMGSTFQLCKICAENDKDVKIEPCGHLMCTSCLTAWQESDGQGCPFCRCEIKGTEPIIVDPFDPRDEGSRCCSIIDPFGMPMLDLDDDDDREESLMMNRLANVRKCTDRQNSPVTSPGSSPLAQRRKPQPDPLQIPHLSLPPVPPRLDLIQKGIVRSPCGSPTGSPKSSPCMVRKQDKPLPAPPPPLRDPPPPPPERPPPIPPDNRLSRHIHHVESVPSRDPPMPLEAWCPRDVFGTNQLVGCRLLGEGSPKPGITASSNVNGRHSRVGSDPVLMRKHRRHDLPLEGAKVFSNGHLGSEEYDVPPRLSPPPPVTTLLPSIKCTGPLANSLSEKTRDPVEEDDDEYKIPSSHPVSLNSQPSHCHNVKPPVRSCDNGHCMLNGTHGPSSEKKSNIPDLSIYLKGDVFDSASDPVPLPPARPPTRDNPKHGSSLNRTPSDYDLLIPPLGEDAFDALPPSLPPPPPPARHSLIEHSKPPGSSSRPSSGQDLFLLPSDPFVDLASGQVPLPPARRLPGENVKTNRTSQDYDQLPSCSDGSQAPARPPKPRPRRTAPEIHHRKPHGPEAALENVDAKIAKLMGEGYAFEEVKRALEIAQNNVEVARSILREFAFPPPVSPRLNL

One may read the EC50 as the midpoint of the concentration-response curve. In general, IC50 refers to the concentration that inhibits the measured activity by half. Consider `CC1CC(c2cccc(-n3cc(C4CC4)c4c(C#N)c(CN5CCC[C@H](C)C5)[nH]c4c3=O)c2)(c2nncn2C)C1` (mixture of isomers) [Example 134, 4-Cyclopropyl-2-{[(3S)-3-methylpiperidin-1-yl]methyl}-7-oxo-6-{3-[(1R,3S)-3-methyl-1-(4-methyl-4H-1,2,4-triazol-3-yl)cyclobutyl]phenyl}-1H,6H,7H-pyrrolo[2,3-c]pyridine-3-carbonitrile], for which, in assay [1], the EC50 was under 0.1 µM. This compound also gave an IC50 in assay [2] of under 0.1 µM.

For `CC1CC(c2cccc(-n3cc(C4CC4)c4c(S(C)(=O)=O)c(CN5CCC[C@H](C)C5)[nH]c4c3=O)c2)(c2nncn2C)C1` (mixture of isomers) [Example 135, 4-Cyclopropyl-3-methanesulfonyl-2-{[(3S)-3-methylpiperidin-1-yl]methyl}-6-{3-[(1R,3S)-3-methyl-1-(4-methyl-4H-1,2,4-triazol-3-yl)cyclobutyl]phenyl}-1H,6H,7H-pyrrolo[2,3-c]pyridin-7-one], in assay [1], the EC50 is under 0.1 µM. This compound showed an IC50 in assay [2] of under 0.1 µM.

In assay [1], `CC1CC(c2cccc(-n3cc(C(=O)O)c4cn[nH]c4c3=O)c2)(c2nncn2C)C1` (mixture of isomers) [Example 141, 7-Oxo-6-{3-[(1R,3S)-3-methyl-1-(4-methyl-4H-1,2,4-triazol-3-yl)cyclobutyl]phenyl}-1H,6H,7H-pyrazolo[3,4-c]pyridine-4-carboxylic acid] registered an EC50 of over 5 µM. For the same compound, the IC50 in assay [2] was in the range of 1 to 5 µM.

In turn, `CC1CC(c2cccc(-n3cnc4c(C(F)(F)F)c(CN5CCC[C@H](C)C5)[nH]c4c3=O)c2)(c2nncn2C)C1` (mixture of isomers) [Example 143, 6—{[(3S)-3-Methylpiperidin-1-yl]methyl}-3-{3-[(1R,3S)-3-methyl-1-(4-methyl-4H-1,2,4-triazol-3-yl)cyclobutyl]phenyl}-7-(trifluoromethyl)-3H,4H,5H-pyrrolo[3,2-d]pyrimidin-4-one] showed an EC50 in assay [1] of 0.1 to 1 µM. The IC50 in assay [2] was under 0.1 µM.

`Cn1cnnc1[C@]1(c2cccc(-n3cc(C4CC4)c4nc[nH]c4c3=O)c2)C[C@@H](C)C1` (single isomer, unassigned) [Example 12, 7-cyclopropyl-5-{3-[(1s,3r)-3-methyl-1-(4-methyl-4H-1,2,4-triazol-3-yl)cyclobutyl]phenyl}-3H,4H,5H-imidazo[4,5-c]pyridin-4-one] yielded an EC50 in assay [1] of 1 to 5 µM. This compound also registered an IC50 in assay [2] of 0.1 to 1 µM.

Turning to `Cn1cnnc1[C@]1(c2cccc(-n3cc(C4CC4)c4c(C#N)c[nH]c4c3=O)c2)C[C@H](C)C1` (single isomer, unassigned) [Example 14, 4-Cyclopropyl-7-oxo-6-{3-[(1r,3s)-3-methyl-1-(4-methyl-4H-1,2,4-triazol-3-yl)cyclobutyl]phenyl}-1H,6H,7H-pyrrolo[2,3-c]pyridine-3-carbonitrile], the EC50 in assay [1] fell in the range of 0.1 to 1 µM. In assay [2], this compound came in with an IC50 of under 0.1 µM.

For `Cn1cncc1-c1c[nH]c2c(=O)n(-c3cccc([C@]4(c5nncn5C)C[C@@H](C)C4)c3)cc(C3CC3)c12` (single isomer, unassigned) [Example 34], the EC50 in assay [1] lay within 1 to 5 µM. Also, the IC50 in assay [2] was under 0.1 µM.

Turning to `Cn1cnnc1[C@]1(c2cccc(-n3cc(C(F)(F)F)c4cc[nH]c4c3=O)c2)C[C@H](C)C1` (single isomer, unassigned) [Example 36], the EC50 in assay [1] lay in the range of 0.1 to 1 µM. The compound further displayed an IC50 in assay [2] of under 0.1 µM.

In assay [1], `Cn1cnnc1[C@]1(c2cccc(-n3cc(C(F)(F)F)c4cc[nH]c4c3=O)c2)C[C@@H](C)C1` (single isomer, unassigned) [Example 37] showed an EC50 of 0.1 to 1 µM. This compound had an IC50 in assay [2] of under 0.1 µM.

The compound `C[C@H]1CCCN(Cc2cc3c(S(C)(=O)=O)cn(-c4cccc([C@]5(c6nncn6C)C[C@@H](C)C5)c4)c(=O)c3[nH]2)C1` (single isomer, unassigned) [Example 107] gave a half-maximal effective concentration (EC50) in assay [1] of under 0.1 µM. Moreover, the IC50 in assay [2] was under 0.1 µM.

In assay [1], `Cn1cnnc1[C@]1(c2cccc(-n3cc(S(C)(=O)=O)c4cc[nH]c4c3=O)c2)C[C@H](C)C1` (single isomer, unassigned) [Example 108, 6-[3-[3-methyl-1-(4-methyl-1,2,4-triazol-3-yl)cyclobutyl]phenyl]-4-methylsulfonyl-1H-pyrrolo[2,3-c]pyridin-7-one] displayed an EC50 of over 5 µM. This compound also displayed an IC50 in assay [2] of 0.1 to 1 µM.

`Cn1cnnc1[C@]1(c2cccc(-n3cc(C4CC4)c4[nH]c(=O)[nH]c4c3=O)c2)C[C@H](C)C1` (single isomer, unassigned) [Example 117, 7-cyclopropyl-5-[3-[cis-3-methyl-1-(4-methyl-1,2,4-triazol-3-yl)cyclobutyl]phenyl]-1,3-dihydroimidazo[4,5-c]pyridine-2,4-dione]: in assay [1], the EC50 was over 5 µM. Further, the IC50 in assay [2] lay within 0.1 to 1 µM.

For `Cn1cnnc1[C@]1(c2cccc(-n3cc(C4CC4)c4[nH]c(=O)[nH]c4c3=O)c2)C[C@@H](C)C1` (single isomer, unassigned) [Example 118, 7-cyclopropyl-5-[3-[trans-3-methyl-1-(4-methyl-1,2,4-triazol-3-yl)cyclobutyl]phenyl]-1,3-dihydroimidazo[4,5-c]pyridine-2,4-dione], in assay [1], the EC50 is over 5 µM. In assay [2], the IC50 is 0.1 to 1 µM.

Consider `CC1CC(c2cccc(-n3cc(C4CC4)c4cc[nH]c4c3=O)c2)(c2nncn2C)C1` (stereo not shown) [Example 4, 4-cyclopropyl-6-[3-[3-methyl-1-(4-methyl-1,2,4-triazol-3-yl)cyclobutyl]phenyl]-1H-pyrrolo[2,3-c]pyridin-7-one], for which the EC50 in assay [1] fell in the range of 1 to 5 µM. For the same compound, the IC50 in assay [2] is 0.1 to 1 µM.

Regarding `Cn1cnnc1[C@]1(c2cccc(-n3cc(C4CC4)c4cn[nH]c4c3=O)c2)C[C@H](C)C1` [Example 7, 4-cyclopropyl-6-{3-[(1r,3s)-3-methyl-1-(4-methyl-4H-1,2,4-triazol-3-yl)cyclobutyl]phenyl}-1H,6H,7H-pyrazolo[3,4-c]pyridin-7-one], the EC50 in assay [1] fell in the range of 1 to 5 µM. Moreover, the IC50 in assay [2] was under 0.1 µM.

On to `CC1CC(c2cccc(-n3cc(C4CC4)c4cc(CO)[nH]c4c3=O)c2)(c2nncn2C)C1` (stereo not shown) [Example 8, 4-cyclopropyl-2-(hydroxymethyl)-6-[3-[3-methyl-1-(4-methyl-1,2,4-triazol-3-yl)cyclobutyl]phenyl]-1H-pyrrolo[2,3-c]pyridin-7-one], for which, in assay [1], the EC50 lay in the range of 1 to 5 µM. Moreover, in assay [2], the IC50 was 1 to 5 µM.

Regarding `Cn1cnnc1C1(c2cccc(-n3cc(C4CC4)c4cc[nH]c4c3=O)c2)CCC1` [Example 9, 4-cyclopropyl-6-[3-[1-(4-methyl-1,2,4-triazol-3-yl)cyclobutyl]phenyl]-1H-pyrrolo[2,3-c]pyridin-7-one], the 50% effective concentration (EC50) in assay [1] fell in the range of 1 to 5 µM. This compound also had an IC50 in assay [2] of 0.1 to 1 µM.

Consider `Cn1cnnc1[C@]1(c2cccc(-n3cc(C#N)c4cc[nH]c4c3=O)c2)C[C@H](C)C1` [Example 38, 7-oxo-6-{3-[(1r,3s)-3-methyl-1-(4-methyl-4H-1,2,4-triazol-3-yl)cyclobutyl]phenyl}-1H,6H,7H-pyrrolo[2,3-c]pyridine-4-carbonitrile], for which the EC50 in assay [1] is 1 to 5 µM. Also, the IC50 in assay [2] was under 0.1 µM.

`CC1CC(c2cccc(-n3cc(C4CC4)c4cc(CNC5(C)CCC5)[nH]c4c3=O)c2)(c2nncn2C)C1` (stereo not shown) [Example 39, 4-cyclopropyl-6-{3-[3-methyl-1-(4-methyl-4H-1,2,4-triazol-3-yl)cyclobutyl]phenyl}-2-{[(1-methylcyclobutyl)amino]methyl}-1H,6H,7H-pyrrolo[2,3-c]pyridin-7-one]: in assay [1], the EC50 is under 0.1 µM. Moreover, the IC50 in assay [2] was under 0.1 µM.

In assay [1], `CC1CC(c2cccc(-n3cc(C4CC4)c4cc(CN[C@@H]5COC[C@@H]5O)[nH]c4c3=O)c2)(c2nncn2C)C1` (stereo partly drawn) [Example 40, 4-cyclopropyl-2-({[(3R,4R)-4-hydroxyoxolan-3-yl]amino}methyl)-6-{3-[3-methyl-1-(4-methyl-4H-1,2,4-triazol-3-yl)cyclobutyl]phenyl}-1H,6H,7H-pyrrolo[2,3-c]pyridin-7-one] displayed an EC50 of 0.1 to 1 µM. Also, the IC50 in assay [2] was under 0.1 µM.

Turning to `CC1CC(c2cccc(-n3cc(C4CC4)c4cc(CNC5(C(F)(F)F)CC5)[nH]c4c3=O)c2)(c2nncn2C)C1` (stereo not shown) [Example 41, 4-cyclopropyl-6-{3-[(1r,3s)-3-methyl-1-(4-methyl-4H-1,2,4-triazol-3-yl)cyclobutyl]phenyl}-2-({[1-(trifluoromethyl)cyclopropyl]amino}methyl)-1H,6H,7H-pyrrolo[2,3-c]pyridin-7-one], in assay [1], the EC50 fell in the range of 1 to 5 µM. This compound returned an IC50 in assay [2] of 0.1 to 1 µM.

In assay [1], `CC1CC(c2cccc(-n3cc(C4CC4)c4cc(CNC5(CO)CCC5)[nH]c4c3=O)c2)(c2nncn2C)C1` (stereo not shown) [Example 42, 4-cyclopropyl-2-({[1-(hydroxymethyl)cyclobutyl]amino}methyl)-6-{3-[3-methyl-1-(4-methyl-4H-1,2,4-triazol-3-yl)cyclobutyl]phenyl}-1H,6H,7H-pyrrolo[2,3-c]pyridin-7-one] registered an EC50 of under 0.1 µM. Moreover, the IC50 in assay [2] was under 0.1 µM.

As for `CC1CC(c2cccc(-n3cc(C4CC4)c4cc(CN5CCCC[C@@H]5C)[nH]c4c3=O)c2)(c2nncn2C)C1` (stereo partly shown) [Example 43, 4-cyclopropyl-6-{3-[3-methyl-1-(4-methyl-4H-1,2,4-triazol-3-yl)cyclobutyl]phenyl}-2-{[(2S′)-2-methylpiperidin-1-yl]methyl}-1H,6H,7H-pyrrolo[2,3-c]pyridin-7-one], the EC50 in assay [1] was under 0.1 µM. Further, the IC50 in assay [2] is under 0.1 µM.
